US20230026163A1, “ANTICANCER COMPOUND AND MEDICAL USE THEREOF” (ASCENTAWITS PHARMACEUTICALS, LTD., priority 2019, published 2023)
Where two headings read alike, the source gives them in different places.

System: H460 cell line
Experiment: Hypoxia-dependent cytotoxicity experiment (2 hours exposure, air or N2, CTG)
Format: cell-based
Details: Homo sapiens, then 3 days
Protocol: To determine the effect of the compounds of the present disclosure on cancer cell proliferation, these compounds were tested for cancer cell anti-proliferative activity in a porous CTG-based assay. Cell growth was compared in the present (treatment groups) and the absence of the test compound. 10,000 cells/well/495 μL of medium was used to test the following cell line, a human tumor cell line of H460 non-small cell lung cancer. The cells were seeded on glass-inserts located in each well of 24-well plates with a density and medium as specified above. 24 hours later, the plates were divided into 2 groups, hypoxia (using N2) group and air group. TH-302 at the concentrations from 100, 10, 0.1 to 0.01 μM, and the test compounds at the concentrations from 10, 1, 0.1, 0.01, 0.001 to 0.0001 were added to each well (500 μL volume) of the treatment groups. The final DMSO concentration in each well was lower than or equal to 1%. The cells in the hypoxia group were incubated for 2 hours in an ELECTROTEK hypoxia workstation. The cells in the air group were incubated for 2 hours in a standard culture incubator. 2 hours later, the test compounds were removed from each well. The cells were washed with 500 μL of medium and incubated in 500 μL of fresh medium for 3 days. 3 days later, 200 μL of medium per well was discarded. 60 μL of CTG was added to the wells, and the plates were placed at room temperature for 15 minutes in the dark. 100 μL of medium from each well of the 24-well plates was transferred to 96-well plates. The chemiluminescence signal values were read with an M5 full-band multi-mode-function microplate reader, and integration=750 ms. The compounds of control 1 and control 2 were used as controls.

## O=[N+]([O-])c1ccc(C(OP(=O)(N2CC2)N2CC2)C(F)(F)F)c2ccccc12 (centres unmarked) [Compound 01]
NCI-H460, H460, air, read-out: Normoxia: IC50
  IC50: 331 nM
NCI-H460, H460, hypoxia (N2), read-out: N2: IC50
  IC50: 23.9 nM
